According to PubChem BioAssay AID330 (DTP/NCI, 2004):
“And” between values parts separate entries of the source, which are not always exact repeats. Equal entries are not always repeated. Inconclusive results and toxic doses are left out. How the source made its calls: active means survival T/C of 150% or more; inactive means T/C below 125% in these data.

Tested on: P388 leukemia ip, CD2F1 mice, survival T/C
Assay: NCI In Vivo Anticancer Drug Screen. Data for tumor model P388 Leukemia (intraperitoneal) in CD2F1 (CDF1) mice
Conditions: endpoint: median survival time, higher = longer survival
Method in brief: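 Mice carrying the transplanted tumor received test compound or vehicle. Survival was recorded in each group, and the value is the treated-group measurement divided by that of the vehicle-treated control group.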

[1] = dose: 12.5 mg/kg/injection, schedule: Q01DX009 (ip), vehicle: saline with Tween-80
[2] = dose: 25.0 mg/kg/injection, schedule: Q01DX009 (ip), vehicle: saline with Tween-80
[3] = dose: 50.0 mg/kg/injection, schedule: Q01DX009 (ip), vehicle: saline with Tween-80
[4] = dose: 100.0 mg/kg/injection, schedule: Q01DX009 (ip), vehicle: saline with Tween-80
[5] = dose: 200.0 mg/kg/injection, schedule: Q01DX009 (ip), vehicle: saline with Tween-80
[6] = dose: 6.25 mg/kg/injection, schedule: Q01DX009 (ip), vehicle: saline with Tween-80
[7] = dose: 60.0 mg/kg/injection, schedule: Q01DX005 (ip), vehicle: Klucel (hydroxypropylcellulose) (HPC)
[8] = dose: 120.0 mg/kg/injection, schedule: Q01DX005 (ip), vehicle: Klucel (hydroxypropylcellulose) (HPC)
[9] = dose: 240.0 mg/kg/injection, schedule: Q01DX005 (ip), vehicle: Klucel (hydroxypropylcellulose) (HPC)
[10] = dose: 50.0 mg/kg/injection, schedule: Q01DX005 (ip), vehicle: saline with Tween-80
[11] = dose: 100.0 mg/kg/injection, schedule: Q01DX005 (ip), vehicle: saline with Tween-80
[12] = dose: 200.0 mg/kg/injection, schedule: Q01DX005 (ip), vehicle: saline with Tween-80
[13] = dose: 60.0 mg/kg/injection, schedule: Q01DX005 (ip), vehicle: saline with Tween-80
[14] = dose: 240.0 mg/kg/injection, schedule: Q01DX005 (ip), vehicle: saline with Tween-80

Measured: T/C

COc1cc(C=C2C(=O)C=CC2=O)cc(OC)c1O
inactive: dose: 1.25 mg/kg/injection, schedule: Q04DX002 (ip), vehicle: saline with Tween-80 102 % of control | dose: 2.5 mg/kg/injection, schedule: Q04DX002 (ip), vehicle: saline with Tween-80 103 % of control | dose: 5.0 mg/kg/injection, schedule: Q04DX002 (ip), vehicle: saline with Tween-80 102 % of control

CN1CCN(CCCN2CC(=O)N3Cc4ccccc4CN3C(=O)C2)CC1
inactive: dose: 50.0 mg/kg/injection, schedule: Q01DX005 (ip), vehicle: saline 102 % of control | dose: 100.0 mg/kg/injection, schedule: Q01DX005 (ip), vehicle: saline 102 % of control | dose: 200.0 mg/kg/injection, schedule: Q01DX005 (ip), vehicle: saline 103 % of control

COc1ccc(C(O)(CS(C)=O)c2cccs2)cc1 (configuration not stated)
inactive: [1] 94 % of control and 97 % of control | [2] 100 % of control and 102 % of control | [3] 110 % of control and 96 % of control | [4] 91 % of control and 96 % of control

CCCCCCCCCC(C)(O)C#CC(C)(O)CCCCCCCCC (configuration not stated)
inactive: [4] 87 % of control | [5] 95 % of control | dose: 400.0 mg/kg/injection, schedule: Q04DX003 (ip), vehicle: saline with Tween-80 86 % of control

C[n+]1c(-c2ccc(/C=N/NC(=O)C(=O)N/N=C/c3ccc(-c4cn5ccccc5[n+]4C)cc3)cc2)cn2ccccc21
inactive: dose: 7.5 mg/kg/injection, schedule: Q01DX005 (ip), vehicle: saline 109 % of control | dose: 15.0 mg/kg/injection, schedule: Q01DX005 (ip), vehicle: saline 119 % of control

CN1/C(=C/C=C/C(I)=C/C=C/C2=[N+](C)c3ccccc3C2(C)C)C(C)(C)c2ccccc21
inactive: dose: 3.13 mg/kg/injection, schedule: Q01DX009 (ip), vehicle: saline with Tween-80 121 % of control | [6] 123 % of control | [1] 120 % of control | [2] 124 % of control

O=C(Nc1c(Cl)cccc1Cl)OCc1ccc2c(c1)OCO2
inactive: [7] 92 % of control | [8] 90 % of control | [9] 90 % of control

CC(=O)O/N=C(C)/C(C)=N/Nc1ccccc1
inactive: [10] 93 % of control | [11] 89 % of control | [12] 87 % of control

Cc1ccc(NC(=O)CCCC(=O)C(C#N)c2c(Cl)cccc2Cl)cc1C (configuration not stated)
inactive: [13] 114 % of control | dose: 120.0 mg/kg/injection, schedule: Q01DX005 (ip), vehicle: saline with Tween-80 108 % of control | [14] 103 % of control

S=c1oc(-c2ccc3c(c2)OCO3)nn1CN1CCN(Cn2nc(-c3ccc4c(c3)OCO4)oc2=S)CC1
inactive: dose: 50.0 mg/kg/injection, schedule: Q01DX005 (ip), vehicle: Klucel (hydroxypropylcellulose) (HPC) 96 % of control | dose: 100.0 mg/kg/injection, schedule: Q01DX005 (ip), vehicle: Klucel (hydroxypropylcellulose) (HPC) 96 % of control | dose: 200.0 mg/kg/injection, schedule: Q01DX005 (ip), vehicle: Klucel (hydroxypropylcellulose) (HPC) 93 % of control

CCN(CC)CCOc1ccc(NC2=C(Cl)C(=O)C(Nc3ccc(OCCN(CC)CC)cc3)=C(Cl)C2=O)cc1
inactive: dose: 3.13 mg/kg/injection, schedule: Q01DX009 (ip), vehicle: saline + alcohol 103 % of control | dose: 6.25 mg/kg/injection, schedule: Q01DX009 (ip), vehicle: saline + alcohol 110 % of control | dose: 12.5 mg/kg/injection, schedule: Q01DX009 (ip), vehicle: saline + alcohol 112 % of control | [1] 105 % of control | [2] 106 % of control

NNc1nncn2c1cc1ccccc12
inactive: [6] 98 % of control | [1] 95 % of control | [2] 92 % of control

CCN(CC)CCCC(C)Nc1cc(OC)c2nc(C)cc(OC)c2c1OC (configuration not stated)
inactive: dose: 1.56 mg/kg/injection, schedule: Q01DX009 (ip), vehicle: saline 100 % of control | dose: 3.12 mg/kg/injection, schedule: Q01DX009 (ip), vehicle: saline 89 % of control | dose: 6.25 mg/kg/injection, schedule: Q01DX009 (ip), vehicle: saline 91 % of control and 97 % of control

Oc1cc2c(cc1C(c1ccc(Cl)cc1)N1CCN(C(c3ccc(Cl)cc3)c3cc4c(cc3O)OCO4)CC1)OCO2 (configuration not stated)
inactive: [7] 89 % of control | [8] 88 % of control

CN(C)NC(=O)/C=C\C(=O)O
inactive: dose: 66.0 mg/kg/injection, schedule: Q01DX009 (ip), vehicle: saline 105 % of control | dose: 100.0 mg/kg/injection, schedule: Q01DX009 (ip), vehicle: saline 100 % of control | dose: 150.0 mg/kg/injection, schedule: Q01DX009 (ip), vehicle: saline 100 % of control | dose: 200.0 mg/kg/injection, schedule: Q01DX009 (ip), vehicle: saline 91 % of control

OC1CC2CCC(N2)C1c1ccccc1 (configuration not stated)
inactive: dose: 12.5 mg/kg/injection, schedule: Q01DX005 (ip), vehicle: saline with Tween-80 94 % of control | dose: 25.0 mg/kg/injection, schedule: Q01DX005 (ip), vehicle: saline with Tween-80 86 % of control | [10] 101 % of control and 93 % of control

O=C(/C=C/c1ccccc1Cl)c1ccccc1
inactive: [3] 112 % of control | [4] 110 % of control | [5] 114 % of control

ClC1c2ccccc2Cc2cccnc21 (configuration not stated)
inactive: [3] 102 % of control | [4] 101 % of control | [5] 95 % of control

CCCCCCCCC(=O)c1c(OC)oc(/C=N/NC(N)=S)cc1=O
inactive: dose: 100.0 mg/kg/injection, schedule: Q01DX009 (ip), vehicle: Klucel (hydroxypropylcellulose) (HPC) 86 % of control | dose: 200.0 mg/kg/injection, schedule: Q01DX009 (ip), vehicle: Klucel (hydroxypropylcellulose) (HPC) 91 % of control | dose: 400.0 mg/kg/injection, schedule: Q01DX009 (ip), vehicle: Klucel (hydroxypropylcellulose) (HPC) 98 % of control

O=NN(Cc1cccnc1)C(=O)NC1CCCCC1
inactive: dose: 25.0 mg/kg/injection, schedule: Q01DX001 (ip), vehicle: distilled water + Tween-80 109 % of control | dose: 50.0 mg/kg/injection, schedule: Q01DX001 (ip), vehicle: distilled water + Tween-80 98 % of control | dose: 100.0 mg/kg/injection, schedule: Q01DX001 (ip), vehicle: distilled water + Tween-80 100 % of control

C/C(=N\OCC(O)CNCCNC(=O)C(C)C)c1ccc(N(C)C)cc1 (configuration not stated)
inactive: [7] 98 % of control | [8] 99 % of control

O=C(CSc1nnc(CSc2ccc(Cl)cc2)n1-c1ccccc1)NC(=O)Nc1ccccc1
inactive: dose: 7.5 mg/kg/injection, schedule: Q01DX005 (ip), vehicle: saline with Tween-80 94 % of control | dose: 15.0 mg/kg/injection, schedule: Q01DX005 (ip), vehicle: saline with Tween-80 90 % of control | dose: 30.0 mg/kg/injection, schedule: Q01DX005 (ip), vehicle: saline with Tween-80 86 % of control | [13] 88 % of control | [14] 89 % of control (2×) and 96 % of control

N=c1ccn2c(n1)OC1C(O)C(COS(=O)OC3C(CO)OC4C3Oc3nc(=N)ccn34)OC12 (configuration not stated)
inactive: [5] 112 % of control

CC(C)(C)n1nc(C2CC2)c(Br)c1NC(=O)c1ccccc1
inactive: dose: 30.0 mg/kg/injection, schedule: Q01DX005 (ip), vehicle: Klucel (hydroxypropylcellulose) (HPC) 107 % of control | [7] 109 % of control | [8] 107 % of control | [9] 98 % of control

COc1cc(OC(=O)N(CCCl)N=O)cc(OC)c1OC
inactive: dose: 12.5 mg/kg/injection, schedule: Q01DX001 (ip), vehicle: Klucel (hydroxypropylcellulose) (HPC) 112 % of control | dose: 25.0 mg/kg/injection, schedule: Q01DX001 (ip), vehicle: Klucel (hydroxypropylcellulose) (HPC) 101 % of control | dose: 50.0 mg/kg/injection, schedule: Q01DX001 (ip), vehicle: Klucel (hydroxypropylcellulose) (HPC) 103 % of control

CCC1(CC)C(=O)N(C(C)=O)C2(C)C(=O)NC(=O)N2C1=O (configuration not stated)
inactive: dose: 100.0 mg/kg/injection, schedule: Q01DX001 (ip), vehicle: saline 100 % of control | dose: 200.0 mg/kg/injection, schedule: Q01DX001 (ip), vehicle: saline 100 % of control | dose: 400.0 mg/kg/injection, schedule: Q01DX001 (ip), vehicle: saline 101 % of control

O=C(CCCCCS)NCCCCCCCCCCNC(=O)CCCCCS
inactive: dose: 100.0 mg/kg/injection, schedule: Q04DX002 (ip), vehicle: Klucel (hydroxypropylcellulose) (HPC) 97 % of control | dose: 200.0 mg/kg/injection, schedule: Q04DX002 (ip), vehicle: Klucel (hydroxypropylcellulose) (HPC) 92 % of control | dose: 400.0 mg/kg/injection, schedule: Q04DX002 (ip), vehicle: Klucel (hydroxypropylcellulose) (HPC) 90 % of control

CC1(O)c2ccccc2-c2ccccc2C1(C)O (configuration not stated)
inactive: [10] 97 % of control | [11] 100 % of control | [12] 90 % of control
